Results: patent US20240108006A1, “PESTICIDALLY ACTIVE HETEROAROMATIC COMPOUNDS” (SYNGENTA CROP PROTECTION AG, priority 2021, published 2024)

Legend:
Spodoptera littoralis = assay: Example B9: Spodoptera littoralis (Egyptian cotton leaf worm), cotton leaf discs, L1 larvae; format: in vivo; details: foliar, 72 h, application rate of 200 ppm, 3 days after infestation, read-out: control in at least one of the three categories (mortality, anti-feedant effect, or growth inhibition)
How it was run: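 Five L1 larvae placed on sprayed, dried cotton leaf discs; spray solutions aqueous, from 10,000 ppm DMSO stocks. Control given when mortality, anti-feedant effect or growth inhibition exceeds untreated samples at 3 days.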

Myzus persicae [1] = assay: Example B11: Myzus persicae (green peach aphid), sucrose solution 96-well; format: in vivo; details: 120 h, application rate of 50 ppm, 5 days after infestation
Description: Example B11: Myzus persicae (Green Peach Aphid)
Test compounds prepared from 10,000 ppm DMSO stock solutions were applied by a liquid handling robot into 96-well microtiter plates and mixed with a sucrose solution. Parafilm was stretched over the 96-well microtiter plate and a plastic stencil with 96 holes was placed onto the plate. Aphids were sieved into the wells directly onto the Parafilm. The infested plates were closed with a gel blotting card and a second plastic stencil and then turned upside down. The samples were assessed for mortality 5 days after infestation.

Myzus persicae [2] = assay: Example B7: Myzus persicae (green peach aphid), intrinsic activity, sucrose solution 24-well; format: in vivo; details: 120 h, application rate of 12.5 ppm, 5 days after infestation, read-out: control (mortality)
How it was run: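 Compounds from 10,000 ppm DMSO stocks were mixed into sucrose solution in wells at a rate of 12.5 ppm. Aphid-infested pea seedlings were placed on a Parafilm membrane over the solution, so aphids fed through it. Mortality was scored 5 days after infestation.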

Diabrotica balteata = assay: Example B2: Diabrotica balteata (corn root worm), maize sprouts, L2 larvae; format: in vivo; details: 96 h, application rate of 200 ppm, 4 days after infestation, read-out: control in at least one of the two categories (mortality or growth inhibition)
How it was run: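 Maize sprouts on agar sprayed with aqueous test solutions made from 10,000 ppm DMSO stocks, dried, then infested with 6 to 10 L2 larvae per well. Mortality and growth inhibition assessed versus untreated samples 4 days after infestation; application rate 200 ppm.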

Myzus persicae [3] = assay: Example B5: Myzus persicae (green peach aphid), feeding/contact activity; format: in vivo; details: 144 h, application rate of 200 ppm, 6 days after infestation
Experimental: Example B5: Myzus persicae (Green Peach Aphid):Feeding/Contact Activity
Sunflower leaf discs were placed onto agar in a 24-well microtiter plate and sprayed with aqueous test solutions prepared from 10,000 ppm DMSO stock solutions. After drying, the leaf discs were infested with an aphid population of mixed ages. The samples were assessed for mortality 6 days after infestation.

Plutella xylostella = assay: Example B8: Plutella xylostella (diamond back moth), artificial diet 24-well, eggs; format: in vivo; details: 192 h, application rate of 200 ppm, 8 days after infestation, read-out: effect in at least one of the two categories (mortality or growth inhibition)
How it was run: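 Plutella eggs placed onto dried, compound-treated artificial diet, the aqueous test solutions diluted from 10,000 ppm DMSO stocks. Eight days post-infestation, larvae rated for mortality and growth inhibition relative to untreated controls.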

Euschistus heros = assay: Example B3: Euschistus heros (neotropical brown stink bug), soybean leaves, N2 nymphs; format: in vivo; details: 120 h, application rate of 200 ppm, 5 days after infestation, read-out: control in at least one of the two categories (mortality or growth inhibition)
Experimental: Example B3: Euschistus heros (Neotropical Brown Stink Bug)
Soybean leaves on agar in 24-well microtiter plates were sprayed with aqueous test solutions prepared from 10,000 ppm DMSO stock solutions. After drying the leaves were infested with N2 nymphs. The samples were assessed for mortality and growth inhibition in comparison to untreated samples 5 days after infestation.
The following compounds gave an effect of at least 80% control in at least one of the two categories (mortality or growth inhibition) at an application rate of 200 ppm: […]

Chilo suppressalis = assay: Example B1: Chilo suppressalis (striped rice stemborer), artificial diet, L2 larvae; format: in vivo; details: 144 h, application rate of 200 ppm, 6 days after infestation, read-out: control in at least one of the three categories (mortality, anti-feedant effect, or growth inhibition)
How it was run: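 L2 larvae (6-8 per well) were placed on dried artificial diet that had been dosed with aqueous dilutions of 10,000 ppm DMSO stock solutions. After 6 days, control was credited if mortality, antifeedant effect or growth inhibition was higher than in untreated samples.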

[4] = tested on: Frankliniella occidentalis; assay: Example B4: Frankliniella occidentalis (western flower thrips), feeding/contact activity; format: in vivo; details: 168 h, application rate of 200 ppm, 7 days after infestation
Experimental: Example B4: Frankliniella occidentalis (Western Flower Thrips):Feeding/Contact Activity
Sunflower leaf discs were placed on agar in 24-well microtiter plates and sprayed with aqueous test solutions prepared from 10,000 DMSO stock solutions. After drying the leaf discs were infested with a Frankliniella population of mixed ages. The samples were assessed for mortality 7 days after infestation.

Myzus persicae [5] = assay: Example B6: Myzus persicae (green peach aphid), systemic activity, pea seedlings; format: in vivo; details: 144 h, test rate of 24 ppm, 6 days after placing seedlings into test solutions
Experimental: Example B6: Myzus persicae (Green Peach Aphid). Systemic Activity
Roots of pea seedlings infested with an aphid population of mixed ages were placed directly into aqueous test solutions prepared from 10,000 DMSO stock solutions. The samples were assessed for mortality 6 days after placing seedlings into test solutions.

| melting point [°C] | SMILES | percent control (mortality, anti-feedant effect or growth inhibition) at 200 ppm (Spodoptera littoralis) [%] | mortality at 12.5 ppm (Myzus persicae [2]) [%] | percent effect (mortality or growth inhibition) at 200 ppm (Plutella xylostella) [%] | percent control (mortality or growth inhibition) at 200 ppm (Euschistus heros) [%] | percent control (mortality, anti-feedant effect or growth inhibition) at 200 ppm (Chilo suppressalis) [%] | mortality at 200 ppm [4] [%] | mortality at 24 ppm (Myzus persicae [5]) [%] | also measured |
| --- | --- | --- | --- | --- | --- | --- | --- | --- | --- |
|  | C[C@H](NC(=O)Nc1cc(OC(F)(F)C(F)F)c(Cl)cc1Cl)c1ncnn1-c1ncccn1 [Example P46, 1-[2,4-dichloro-5-(1,1,2,2-tetrafluoroethoxy)phenyl]-3-[(1S)-1-(2-pyrimidin-2-yl-1,2,4-triazol-3-yl)ethyl]urea] | ≥ 80 | ≥ 80 | ≥ 80 | ≥ 80 | ≥ 80 |  |  | mortality at 50 ppm (Myzus persicae [1]): ≥ 80%; percent control (mortality or growth inhibition) at 200 ppm (Diabrotica balteata): ≥ 80%; mortality at 200 ppm (Myzus persicae [3]): ≥ 80% |
|  | C[C@H](NC(=O)Nc1cnc(C(F)(F)F)cc1Br)c1ncnn1-c1ncccn1 [Example P280, 1-[4-bromo-6-(trifluoromethyl)-3-pyridyl]-3-[(1S)-1-(2-pyrimidin-2-yl-1,2,4-triazol-3-yl)ethyl]urea] | ≥ 80 | ≥ 80 | ≥ 80 | ≥ 80 | ≥ 80 | ≥ 80 |  | percent control (mortality or growth inhibition) at 200 ppm (Diabrotica balteata): ≥ 80% |
|  | Cc1cc2c(cc1NC(=O)N[C@@H](C)c1ncnn1-c1ncccn1)OCC(=O)N2 [Example P208, 1-(6-methyl-3-oxo-4H-1,4-benzoxazin-7-yl)-3-[(1S)-1-(2-pyrimidin-2-yl-1,2,4-triazol-3-yl)ethyl]urea] |  |  |  |  |  | ≥ 80 |  |  |
| 183 to 186 | C[C@H](NC(=O)Nc1cnc(C(F)(F)F)cc1I)c1ncnn1-c1ncccn1 |  |  |  |  |  |  |  |  |
| 106 to 108 | C[C@H](NC(=S)Nc1cc(Cl)cc(C(F)(F)F)c1)c1ncnn1-c1ncccn1 |  |  |  |  |  |  |  |  |
|  | C[C@H](NC(=O)N(C)c1cnc(C(F)(F)F)cc1Cl)c1ncnn1-c1ncccn1 [Example P235, 1-[4-chloro-6-(trifluoromethyl)-3-pyridyl]-1-methyl-3-[(1S)-1-(2-pyrimidin-2-yl-1,2,4-triazol-3-yl)ethyl]urea] |  | ≥ 80 | ≥ 80 | ≥ 80 | ≥ 80 | ≥ 80 | ≥ 80 | mortality at 200 ppm (Myzus persicae [3]): ≥ 80% |
| 236 to 249 | C[C@H](NC(=O)Nc1cc(Cl)c(Cl)cc1I)c1ncnn1-c1ncccn1 (stereo in doubt) |  |  |  |  |  |  |  |  |
|  | C[C@H](NC(=O)N(C)c1cnc(C(F)(F)F)cc1Br)c1ncnn1-c1ncccn1 [Example P273, 1-[4-bromo-6-(trifluoromethyl)-3-pyridyl]-1-methyl-3-[(1S)-1-(2-pyrimidin-2-yl-1,2,4-triazol-3-yl)ethyl]urea] | ≥ 80 | ≥ 80 | ≥ 80 | ≥ 80 | ≥ 80 |  | ≥ 80 |  |
|  | COC(=O)c1cc(Cl)c(Cl)cc1NC(=O)N[C@@H](C)c1ncnn1-c1ncccn1 [Example P199, methyl 4,5-dichloro-2-[[(1S)-1-(2-pyrimidin-2-yl-1,2,4-triazol-3-yl)ethyl]carbamoylamino]benzoate] |  |  |  |  |  | ≥ 80 |  |  |
| 138 to 140 | C[C@@H]1CN(C(=O)c2ccc(-n3ncnc3[C@H](C)NC(=O)Nc3cc(C(F)(F)F)c(Cl)cc3Cl)nc2)C[C@H](C)O1 |  |  |  |  |  |  |  |  |
|  | C[C@H](NC(=O)Nc1cc(OC(F)(F)Cl)c(Cl)cc1F)c1ncnn1-c1ncccn1 [Example P219, 1-[4-chloro-5-[chloro(difluoro)methoxy]-2-fluoro-phenyl]-3-[(1S)-1-(2-pyrimidin-2-yl-1,2,4-triazol-3-yl)ethyl]urea] | ≥ 80 | ≥ 80 | ≥ 80 |  | ≥ 80 | ≥ 80 |  | percent control (mortality or growth inhibition) at 200 ppm (Diabrotica balteata): ≥ 80% |
|  | COc1cc(C(F)(F)F)ncc1NC(=O)N[C@@H](C)c1ncnn1-c1ncccn1 [Example P348, 1-[4-methoxy-6-(trifluoromethyl)-3-pyridyl]-3-[(1S)-1-(2-pyrimidin-2-yl-1,2,4-triazol-3-yl)ethyl]urea] | ≥ 80 | ≥ 80 |  | ≥ 80 | ≥ 80 |  | ≥ 80 | mortality at 200 ppm (Myzus persicae [3]): ≥ 80% |
|  | C[C@H](NC(=O)Nc1cc(OCc2ccc(Cl)cn2)c(Cl)cc1Cl)c1ncnn1-c1ncccn1 [Example P142, 1-[2,4-dichloro-5-[(5-chloro-2-pyridyl)methoxy]phenyl]-3-[(1S)-1-(2-pyrimidin-2-yl-1,2,4-triazol-3-yl)ethyl]urea] |  |  |  |  |  | ≥ 80 |  |  |
|  | C[C@H](NC(=O)N1CCc2cc(C(F)(F)F)ncc21)c1ncnn1-c1ncccn1 [Example P172, N-[(1S)-1-(2-pyrimidin-2-yl-1,2,4-triazol-3-yl)ethyl]-5-(trifluoromethyl)-2,3-dihydropyrrolo[2,3-c]pyridine-1-carboxamide] | ≥ 80 | ≥ 80 | ≥ 80 | ≥ 80 | ≥ 80 |  | ≥ 80 | percent control (mortality or growth inhibition) at 200 ppm (Diabrotica balteata): ≥ 80%; mortality at 200 ppm (Myzus persicae [3]): ≥ 80% |
|  | CC(NC(=O)Nc1cnc(C(F)(F)F)cc1Cl)c1nccnc1-c1ncccn1 (stereo not shown) [Example P244, 1-[4-chloro-6-(trifluoromethyl)-3-pyridyl]-3-[1-(3-pyrimidin-2-ylpyrazin-2-yl)ethyl]urea] | ≥ 80 | ≥ 80 | ≥ 80 |  | ≥ 80 |  | ≥ 80 | mortality at 200 ppm (Myzus persicae [3]): ≥ 80% |
| 207 to 209 | C[C@@H](c1ncnn1-c1ncccn1)N1CCN(c2cc(OC(F)(F)C(F)F)c(Cl)cc2Cl)C1=O |  |  |  |  |  |  |  |  |
|  | Cc1cccc(Cl)c1NC(=O)N[C@@H](C)c1ncnn1-c1ncccn1 [Example P71, 1-(2-chloro-6-methyl-phenyl)-3-[(1S)-1-(2-pyrimidin-2-yl-1,2,4-triazol-3-yl)ethyl]urea] |  |  |  |  |  | ≥ 80 |  |  |
| 220 to 222 | C[C@H](NC(=O)Nc1ccc(Br)c(Br)c1)c1nccnc1-c1ncccn1 |  |  |  |  |  |  |  |  |
| 124 to 127 | CC(NC(=O)Nc1cc(C(F)(F)F)cc(C(F)(F)F)c1)c1ncnn1-c1ncccn1 (stereo not shown) |  |  |  |  |  |  |  |  |
|  | C[C@@H](c1ncnn1-c1ncccn1)N(C)C(=O)Nc1cnc(C(F)(F)F)cc1Cl [Example P397, 3-[4-chloro-6-(trifluoromethyl)-3-pyridyl]-1-methyl-1-[(1S)-1-(2-pyrimidin-2-yl-1,2,4-triazol-3-yl)ethyl]urea] |  | ≥ 80 | ≥ 80 | ≥ 80 | ≥ 80 |  | ≥ 80 |  |
